A word on the IC50: it is the concentration needed to halve the response being measured.

Test [1] concerns guinea pig ileum (SRS-A induced contraction). Briefly: guinea pig ileum: prevention of the contraction of guinea pig ileum caused by SRS-A. The class given is cell-based. Conditions: Cavia porcellus; SRS-A induced contraction of isolated guinea pig ileum; atropine and chlorpheniramine (1×10^-5 M) present; read-out: G.P. Ileum IC50. As for the experimental part: The tissue is exposed to 5 mg/ml histamine at 1-3 minute intervals until a reproducible response is obtained. Atropine (1×10^-5 M) and chlorpheniramine (1×10^-5 M) are added followed by 1-2 biological units of SRS-A. After washing the tissue, the response to BaCl2 (1×10^-3 M) was also noted.

The subject of test [2] is guinea pig parenchymal strip (immunological release of SRS-A). The experiment in a line: guinea pig parenchymal strip: prevention of the contraction of guinea pig parenchymal tissue by immunological release of SRS-A. The class given is cell-based. As to conditions: Cavia porcellus; egg albumin challenge of sensitized guinea pig lung strip; chlorpheniramine (10^-4 M), indomethacin (10^-5 M), test compound 30 minutes prior. How it is done: The guinea pigs were sacrificed and lungs removed. Strips of subpleural parenchyma were prepared from the left and right diaphragmatic lobes and suspended in a tissue bath under 1 g of tension. After a one hour equilibration period, a dose response to histamine (10^-7 to 10^-4 M) induced contractions was performed to determine maximal contraction. The tissues were then washed and allowed to relax to baseline. Chlorpheniramine (10^-4 M), indomethacin (10^-5 M) and test compound were added 30 minutes prior to challenge with egg albumin. The response to antigen was measured in milligrams of tension.

Consider `CCCCCCCCCCC[C@H](O)[C@H](CCCCC(=O)OC)SCCC(=O)OC` (relative stereo) [Example 1, Threo Methyl 7-Hydroxy-6{[2-(methoxycarbonyl)ethyl]thio}octadecanoate], for which the values for the concentration for half-maximal inhibition (IC50) in test [1] and in test [2] were 1 µM and over 100 µM, respectively.

For `CCCCCCCCCCC[C@H](O)[C@H](CCCCC(=O)O)SCCC(=O)O` (relative stereo) [Example 2, Threo 6-(2-Carboxyethyl)thio-7-hydroxyoctadecanoic Acid], the values for the IC50 in test [1] and in test [2] were 0.24 µM and 80 µM, respectively.

`CCCCCCCCCCC[C@H](O)[C@@H](CCCCC(=O)OC)SCCC(=O)OC` (relative stereo) [Example 4, Erythro Methyl 7-Hydroxy-6-{[2-(methoxycarbonyl)ethyl]-thio}octadecanoate]: in test [2], the IC50 came to 10 µM.

In the case of `CCCCCCCCCCCC(O)C(CCCCC(=O)OC)SC[C@H](N)C(=O)OC` (stereo partly drawn) [Example 3, Threo S-(6-Hydroxy-1-methoxycarbonyl-5-heptadecyl)-L-cysteine Methyl Ester], the IC50 in test [1] is 1.3 µM; in test [2] it was over 100 µM.
